Results reported in the NIST ThermoML archive (doi:10.1016/j.jct.2015.04.029).

Columns and labels:
[1] = wn = mass fraction of the nth substance listed; conditions: for surface tension liquid-gas: Maximal bubble pressure; for mass density: 100 kPa, Liquid, Vibrating tube method
[2] = refractive index (Na D-line) (dimensionless); wn = mass fraction of the nth substance listed; conditions: 100 kPa, Liquid, Standard Abbe refractometry

CCCCn1cc[n+](C)c1.N[C@@H](CO)C(=O)[O-] [1-butyl-3-methylimidazolium L-serinate] + O
Conditions	mass density [kg/m3]	refractive index	surface tension liquid-gas [mN/m]
[1], 298.15 K, w2 = 0.00489	1156.16	–	–
[1], 298.15 K, w2 = 0.00632	1156.21	–	–
[1], 298.15 K, w2 = 0.00706	–	–	46.4
[1], 298.15 K, w2 = 0.00783	1156.25	–	–
[1], 298.15 K, w2 = 0.00859	–	–	46.7
[1], 298.15 K, w2 = 0.00933	1156.29	–	–
[1], 298.15 K, w2 = 0.01019	–	–	46.9
[1], 298.15 K, w2 = 0.01094	1156.32	–	–
[1], 298.15 K, w2 = 0.01171	–	–	47.1
[1], 298.15 K, w2 = 0.01331	–	–	47.3
[1], 303.15 K, w2 = 0.00489	1152.97	–	–
[1], 303.15 K, w2 = 0.00632	1153.01	–	–
[1], 303.15 K, w2 = 0.00706	–	–	46.2
[1], 303.15 K, w2 = 0.00783	1153.06	–	–
[1], 303.15 K, w2 = 0.00859	–	–	46.4
[1], 303.15 K, w2 = 0.00933	1153.1	–	–
[1], 303.15 K, w2 = 0.01019	–	–	46.7
[1], 303.15 K, w2 = 0.01094	1153.15	–	–
[1], 303.15 K, w2 = 0.01171	–	–	46.9
[1], 303.15 K, w2 = 0.01331	–	–	47.1
[1], 308.15 K, w2 = 0.00489	1149.77	–	–
[1], 308.15 K, w2 = 0.00632	1149.82	–	–
[1], 308.15 K, w2 = 0.00706	–	–	46
[1], 308.15 K, w2 = 0.00783	1149.86	–	–
[1], 308.15 K, w2 = 0.00859	–	–	46.2
[1], 308.15 K, w2 = 0.00933	1149.91	–	–
[1], 308.15 K, w2 = 0.01019	–	–	46.4
[1], 308.15 K, w2 = 0.01094	1149.97	–	–
[1], 308.15 K, w2 = 0.01171	–	–	46.6
[1], 308.15 K, w2 = 0.01331	–	–	46.9
[1], 313.15 K, w2 = 0.00489	1146.61	–	–
[1], 313.15 K, w2 = 0.00632	1146.67	–	–
[1], 313.15 K, w2 = 0.00706	–	–	45.7
[1], 313.15 K, w2 = 0.00783	1146.72	–	–
[1], 313.15 K, w2 = 0.00859	–	–	45.9
[1], 313.15 K, w2 = 0.00933	1146.76	–	–
[1], 313.15 K, w2 = 0.01019	–	–	46.1
[1], 313.15 K, w2 = 0.01094	1146.82	–	–
[1], 313.15 K, w2 = 0.01171	–	–	46.3
[1], 313.15 K, w2 = 0.01331	–	–	46.6
[1], 318.15 K, w2 = 0.00489	1143.46	–	–
[1], 318.15 K, w2 = 0.00632	1143.52	–	–
[1], 318.15 K, w2 = 0.00706	–	–	45.4
[1], 318.15 K, w2 = 0.00783	1143.56	–	–
[1], 318.15 K, w2 = 0.00859	–	–	45.6
[1], 318.15 K, w2 = 0.00933	1143.61	–	–
[1], 318.15 K, w2 = 0.01019	–	–	45.8
[1], 318.15 K, w2 = 0.01094	1143.65	–	–
[1], 318.15 K, w2 = 0.01171	–	–	46
[1], 318.15 K, w2 = 0.01331	–	–	46.3
[1], 323.15 K, w2 = 0.00489	1140.24	–	–
[1], 323.15 K, w2 = 0.00632	1140.3	–	–
[1], 323.15 K, w2 = 0.00706	–	–	45.2
[1], 323.15 K, w2 = 0.00783	1140.34	–	–
[1], 323.15 K, w2 = 0.00859	–	–	45.4
[1], 323.15 K, w2 = 0.00933	1140.39	–	–
[1], 323.15 K, w2 = 0.01019	–	–	45.6
[1], 323.15 K, w2 = 0.01094	1140.45	–	–
[1], 323.15 K, w2 = 0.01171	–	–	45.8
[1], 323.15 K, w2 = 0.01331	–	–	46
[1], 328.15 K, w2 = 0.00489	1137.09	–	–
[1], 328.15 K, w2 = 0.00632	1137.16	–	–
[1], 328.15 K, w2 = 0.00706	–	–	44.9
[1], 328.15 K, w2 = 0.00783	1137.21	–	–
[1], 328.15 K, w2 = 0.00859	–	–	45.1
[1], 328.15 K, w2 = 0.00933	1137.27	–	–
[1], 328.15 K, w2 = 0.01019	–	–	45.3
[1], 328.15 K, w2 = 0.01094	1137.32	–	–
[1], 328.15 K, w2 = 0.01171	–	–	45.5
[1], 328.15 K, w2 = 0.01331	–	–	45.7
[1], 333.15 K, w2 = 0.00489	1133.97	–	–
[1], 333.15 K, w2 = 0.00632	1134.03	–	–
[1], 333.15 K, w2 = 0.00706	–	–	44.7
[1], 333.15 K, w2 = 0.00783	1134.08	–	–
[1], 333.15 K, w2 = 0.00859	–	–	44.9
[1], 333.15 K, w2 = 0.00933	1134.13	–	–
[1], 333.15 K, w2 = 0.01019	–	–	45.1
[1], 333.15 K, w2 = 0.01094	1134.18	–	–
[1], 333.15 K, w2 = 0.01171	–	–	45.3
[1], 333.15 K, w2 = 0.01331	–	–	45.5
[1], 338.15 K, w2 = 0.00489	1130.83	–	–
[1], 338.15 K, w2 = 0.00632	1130.9	–	–
[1], 338.15 K, w2 = 0.00706	–	–	44.5
[1], 338.15 K, w2 = 0.00783	1130.95	–	–
[1], 338.15 K, w2 = 0.00859	–	–	44.7
[1], 338.15 K, w2 = 0.00933	1131.01	–	–
[1], 338.15 K, w2 = 0.01019	–	–	44.9
[1], 338.15 K, w2 = 0.01094	1131.07	–	–
[1], 338.15 K, w2 = 0.01171	–	–	45.1
[1], 338.15 K, w2 = 0.01331	–	–	45.4
[2], 298.15 K, w2 = 0.00594	–	1.5125	–
[2], 298.15 K, w2 = 0.00746	–	1.5122	–
[2], 298.15 K, w2 = 0.00898	–	1.5117	–
[2], 298.15 K, w2 = 0.0105	–	1.5112	–
[2], 298.15 K, w2 = 0.01211	–	1.5108	–
[2], 303.15 K, w2 = 0.00594	–	1.5117	–
[2], 303.15 K, w2 = 0.00746	–	1.5113	–
[2], 303.15 K, w2 = 0.00898	–	1.5109	–
[2], 303.15 K, w2 = 0.0105	–	1.5104	–
[2], 303.15 K, w2 = 0.01211	–	1.5099	–
[2], 308.15 K, w2 = 0.00594	–	1.5109	–
[2], 308.15 K, w2 = 0.00746	–	1.5104	–
[2], 308.15 K, w2 = 0.00898	–	1.5101	–
[2], 308.15 K, w2 = 0.0105	–	1.5096	–
[2], 308.15 K, w2 = 0.01211	–	1.5091	–
[2], 313.15 K, w2 = 0.00594	–	1.5099	–
[2], 313.15 K, w2 = 0.00746	–	1.5094	–
[2], 313.15 K, w2 = 0.00898	–	1.5091	–
[2], 313.15 K, w2 = 0.0105	–	1.5087	–
[2], 313.15 K, w2 = 0.01211	–	1.5083	–
[2], 318.15 K, w2 = 0.00594	–	1.5089	–
[2], 318.15 K, w2 = 0.00746	–	1.5084	–
[2], 318.15 K, w2 = 0.00898	–	1.5079	–
[2], 318.15 K, w2 = 0.0105	–	1.5075	–
[2], 318.15 K, w2 = 0.01211	–	1.5071	–
[2], 323.15 K, w2 = 0.00594	–	1.5078	–
[2], 323.15 K, w2 = 0.00746	–	1.5073	–
[2], 323.15 K, w2 = 0.00898	–	1.5068	–
[2], 323.15 K, w2 = 0.0105	–	1.5064	–
[2], 323.15 K, w2 = 0.01211	–	1.5059	–
[2], 328.15 K, w2 = 0.00594	–	1.5071	–
[2], 328.15 K, w2 = 0.00746	–	1.5065	–
[2], 328.15 K, w2 = 0.00898	–	1.5059	–
[2], 328.15 K, w2 = 0.0105	–	1.5055	–
[2], 328.15 K, w2 = 0.01211	–	1.5049	–
[2], 333.15 K, w2 = 0.00594	–	1.5059	–
[2], 333.15 K, w2 = 0.00746	–	1.5055	–
[2], 333.15 K, w2 = 0.00898	–	1.5049	–
[2], 333.15 K, w2 = 0.0105	–	1.5045	–
[2], 333.15 K, w2 = 0.01211	–	1.5041	–
[2], 338.15 K, w2 = 0.00594	–	1.5051	–
[2], 338.15 K, w2 = 0.00746	–	1.5045	–
[2], 338.15 K, w2 = 0.00898	–	1.5041	–
[2], 338.15 K, w2 = 0.0105	–	1.5036	–
[2], 338.15 K, w2 = 0.01211	–	1.5032	–
